Laboratory results reported in US20160168540A1, “COMPOSITION FOR MAINTAINING PLATELET FUNCTION” (KYOTO UNIVERSITY, priority 2013, published 2016).
Entries after “also recorded” stand apart in the source; their conditions may differ. Read-outs that look alike come from different tables or passages of the source.

How the values were obtained:
[1] = test system: iPS cell-derived platelets; experiment: Function-maintaining effect on iPS cell-derived platelets (flow cytometry of CD41a/CD42a/CD42b); format: cell-based, human
Procedure: Human iPS cells (hiPS cells), an iPS cell line (TkDA3-4) established at the University of Tokyo by introducing Oct4, Klf4, Sox2, and c-Myc into human-derived skin cells were cultured on inactivated mouse fibroblasts by treating with 10 μg/mL MitomycinC (manufactured by Wako Pure Chemical Industries Ltd.) in a medium mixture of Dulbecco's modified Eagle's medium and Ham's F-12 medium (manufactured by Sigma-Aldrich Co.) (mixing ratio 1:1) supplemented with 0.1 mM non-essential amino acid (manufactured by Invitrogen Corp.), PSG (100 U/mL penicillin, 100 U/mL streptomycin, and 2 mM L-glutamine) (manufactured by Invitrogen Corp.), 20% knockout serum replacement additive (KSR, manufactured by Invitrogen Corp.), 0.1 mM 2-mercaptoethanol (manufactured by Invitrogen Corp.), and 5 ng/ml basic fibroblast growth factor (bFGF, manufactured by Wako Pure Chemical Industries Ltd.). The cells were subcultured every 3 days, and those cells maintaining an undifferentiated state were used.
In addition, mouse embryo-derived fibroblasts, a C3H10T½ cell line (hereinafter also referred to as “10T½ cells”), purchased from RIKEN BioResource Center were cultured in basal medium Eagle (BME, manufactured by Invitrogen Corp.) supplemented with 10% fetal bovine serum (FBS) and PSG (100 U/mL penicillin, 100 U/mL streptomycin, and 2 mM L-glutamine) (manufactured by Invitrogen Corp.). Then, the 10T½ cells, which had been deactivated in advance by treating with MitomycinC, were seeded so as to give a cell count of 8×10^6/10-cm dish for use as feeder cells. […]
Next, the sac structures were detached from the dish, split open, passed through a 40-μm cell strainer (manufactured by BD), and then centrifuged at 1,500 rpm for 8 minutes to collect hematopoietic progenitor cells. […] Then, the number of cells was counted. […]

TACE (ADAM17) = target: T1, TACE (ADAM17) (Homo sapiens, UniProt P78536); experiment: TACE (ADAM17) inhibition test; format: biochemical; details: fluorescent synthetic substrate, 37° C. for 1.5 hours
T1 construct: made in house; host or cells: mammalian cells or insect cells
T1 sequence (P78536 215-824): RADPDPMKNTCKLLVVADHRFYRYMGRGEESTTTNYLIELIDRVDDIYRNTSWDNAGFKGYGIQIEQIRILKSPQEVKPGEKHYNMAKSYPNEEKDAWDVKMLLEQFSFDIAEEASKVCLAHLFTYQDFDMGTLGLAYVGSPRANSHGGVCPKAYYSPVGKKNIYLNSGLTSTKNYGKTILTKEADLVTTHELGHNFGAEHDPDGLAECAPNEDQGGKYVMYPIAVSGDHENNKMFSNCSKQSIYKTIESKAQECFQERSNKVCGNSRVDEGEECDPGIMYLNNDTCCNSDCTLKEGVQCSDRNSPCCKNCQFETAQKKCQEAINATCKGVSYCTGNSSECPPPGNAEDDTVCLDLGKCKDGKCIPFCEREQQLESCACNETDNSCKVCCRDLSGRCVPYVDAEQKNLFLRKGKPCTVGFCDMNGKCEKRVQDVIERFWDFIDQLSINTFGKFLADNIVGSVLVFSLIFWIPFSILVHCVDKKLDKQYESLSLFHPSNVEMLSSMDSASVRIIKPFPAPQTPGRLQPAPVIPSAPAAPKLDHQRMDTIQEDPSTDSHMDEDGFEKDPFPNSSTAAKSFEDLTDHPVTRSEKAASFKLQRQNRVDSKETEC
Outline: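 Recombinant human TACE (mammalian or insect cell expressed) cleaves Nma-LAQAVRSSK(Dnp)-D-Arg-NH2 quenched substrate, 1.5 h at 37 °C. Fluorescence read at Ex 355/Em 460 nm; IC50 from inhibition vs no-compound control, binned A (<100 nM) or B (≥100 nM).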

[2] = test system: human peripheral blood-derived platelets; experiment: Function-maintaining effect on human peripheral blood-derived platelets (CCCP-enhanced GPIbα shedding); format: cell-based; details: 0.1 to 100 μM, with 100 μM of CCCP, 37° C. for 24 hours; listed as S-108470
Procedure: First, ACD was added in a ratio of 1/10 to human peripheral blood obtained by collecting blood, and centrifuged at 900 rpm for 10 minutes without a break. The supernatant obtained by the centrifugation was further centrifuged at 1,500 rpm for 10 minutes without a break, and then the supernatant was removed. The obtained precipitate was suspended in a Tyrode-HEPES buffer (not containing calcium). The number of platelets in the suspension was counted, and the platelet-containing suspension (Washed Platelet) was adjusted to have a fixed number (about 5×10^7) of platelets in 200 μL of the Tyrode-HEPES buffer (not containing calcium). Next, as described in Protocol 2 shown in FIG. 1, one of either S-108470 (0.1 to 100 μM), TACE inhibitor S (50 μM), or DMSO was added together with 100 μM of CCCP (carbonyl cyanide m-chlorophenyl hydrazone) to the washed platelets. After incubation at 37° C. for 24 hours, the number of CD42b (GPIbα) (+) cells in the CD41a (+) platelets was measured by flow cytometry. Note that, it is known that addition of CCCP enhances GPIbα shedding on the surface of platelets (see Bergmeier et al., Blood, 2003, vol. 102, pp. 4229-4235).

Cc1cccn(CC2(c3ccc(F)c(F)c3)NC(=O)NC2=O)c1=O (single isomer, unassigned; (+)) [(+)-I-10, (+)-5-(3,4-difluorophenyl)-5-[(3-methyl-2-oxopyridin-1(2H)-yl)methyl]imidazolidine-2,4-dione]
number of obtained CD41a (+) CD42a (+) platelets compared with the medium control group ([1]; 10 and 30 μM, treated for 9 to 10 days): slightly larger | percentage of CD41a (+) CD42a (+) CD42b (+) platelets compared with the medium control group ([1]; 10 and 30 μM, treated for 9 to 10 days, listed as S-108470): significant increase; also recorded: increased the percentage of CD42b (+) cells | cytotoxicity / impact on platelet differentiation ([1]; culture system using iPS cells): without exhibiting cytotoxicity or having any impact on platelet differentiation | IC50 (TACE (ADAM17); read-out: TACE IC50): < 100 nM | IC50 (TACE (ADAM17); read-out: TACE inhibitory action, IC50 value): < 100 nM | inhibition of GPIbα shedding (CD42b (GPIbα) (+) cells in the CD41a (+) platelets) [2]: inhibits GPIbα shedding in a concentration-dependent manner; also recorded: suppressed in a concentration-dependent manner

Cc1cccn(CC2(c3ccc4c(c3)CCCO4)NC(=O)NC2=O)c1=O (racemic) [Compound I-26, 5-(chroman-6-yl)-5-[(3-methyl-2-oxopyridin-1(2H)-yl)methyl]imidazolidine-2,4-dione]
IC50 (TACE (ADAM17); read-out: TACE IC50): < 100 nM

O=C1NC(=O)C(Cn2cccc(Cl)c2=O)(c2ccc(Cc3ccccc3)cc2)N1 (racemic) [Compound I-150]
IC50 (TACE (ADAM17); read-out: TACE IC50): < 100 nM

Cc1ccc(C2(Cn3cccc(C)c3=O)NC(=O)NC2=O)c(F)c1F (racemic) [Compound I-128]
IC50 (TACE (ADAM17); read-out: TACE IC50): < 100 nM

COc1ccc(C2(Cn3cccc(C)c3=O)NC(=O)NC2=O)c(OC)c1 (racemic) [Compound I-18, 5-(2,4-dimethoxyphenyl)-5-[(3-methyl-2-oxopyridin-1(2H)-yl)methyl]imidazolidine-2,4-dione]
IC50 (TACE (ADAM17); read-out: TACE IC50): < 100 nM

Cc1cccn(CC2(c3ccc4ccccc4c3)NC(=O)NC2=O)c1=O (racemic) [Compound I-56]
IC50 (TACE (ADAM17); read-out: TACE IC50): < 100 nM

Cc1cc(C2(Cn3cccc(C)c3=O)NC(=O)NC2=O)cc(C)c1OC1CCCC1 (racemic) [Compound I-129]
IC50 (TACE (ADAM17); read-out: TACE IC50): < 100 nM

Cc1cccn(CC2(c3ccncc3)NC(=O)NC2=O)c1=O (racemic) [Compound I-55]
IC50 (TACE (ADAM17); read-out: TACE IC50): < 100 nM

CCc1ccc(C2(Cn3cccc(C)c3=O)NC(=O)NC2=O)cc1 (racemic) [Compound I-116]
IC50 (TACE (ADAM17); read-out: TACE IC50): < 100 nM

Cc1cccn(CC2(c3ccc(F)c(F)c3)NC(=O)NC2=O)c1=O (racemic) [Compound I-10, 5-(3,4-difluorophenyl)-5-[(3-methyl-2-oxopyridin-1(2H)-yl)methyl]imidazolidine-2,4-dione]
IC50 (TACE (ADAM17); read-out: TACE IC50): < 100 nM
